Source: ChEMBL document CHEMBL4346757, “Synthesis and biological evaluation of 7-methoxy-1-(3,4,5-trimethoxyphenyl)-4,5-dihydro-2H-benzo[e]indazoles as new colchicine site inhibitors” (Bioorg Med Chem Lett, 2019)

Experiments:
Format in all cases: functional
HCT-116 [1] = assay: Growth inhibition of human HCT116 cells assessed as cell growth at 0.01 uM after 48 hrs by SRB assay relative to control; conditions: HCT-116, 48 h, read-out: Activity
SF-268 = assay: Growth inhibition of human SF268 cells assessed as cell growth at 0.01 uM after 48 hrs by SRB assay relative to control; conditions: SF-268, 48 h, read-out: Activity
SK-MEL-28 = assay: Growth inhibition of human SK-MEL-28 cells assessed as cell growth at 0.01 uM after 48 hrs by SRB assay relative to control; conditions: SK-MEL-28, 48 h, read-out: Activity
NCI/ADR-RES = assay: Growth inhibition of human NCI-ADR-RES cells assessed as cell growth at 0.01 uM after 48 hrs by SRB assay relative to control; conditions: read-out: Activity
786-0 [2] = assay: Growth inhibition of human 786-0 cells assessed as cell growth at 0.01 uM after 48 hrs by SRB assay relative to control; conditions: 786-0, 48 h, read-out: Activity
CAKI-1 [3] = assay: Growth inhibition of human Caki1 cells assessed as cell growth at 0.01 uM after 48 hrs by SRB assay relative to control; conditions: CAKI-1, 48 h, read-out: Activity
PC-3 = assay: Growth inhibition of human PC3 cells assessed as cell growth at 0.01 uM after 48 hrs by SRB assay relative to control; conditions: PC-3, 48 h, read-out: Activity
DU-145 [4] = assay: Growth inhibition of human DU145 cells assessed as cell growth at 0.01 uM after 48 hrs by SRB assay relative to control; conditions: DU-145, 48 h, read-out: Activity
RPMI-8226 = assay: Growth inhibition of human RPMI8226 cells assessed as cell growth at 0.1 uM after 48 hrs by SRB assay relative to control; conditions: RPMI-8226, 48 h, read-out: Activity
NCI-H322M = assay: Growth inhibition of human NCI-H322M cells assessed as cell growth at 0.1 uM after 48 hrs by SRB assay relative to control; conditions: read-out: Activity
HCC 2998 = assay: Growth inhibition of human HCC2998 cells assessed as cell growth at 0.1 uM after 48 hrs by SRB assay relative to control; conditions: HCC 2998, 48 h, read-out: Activity
HCT-116 [5] = assay: Growth inhibition of human HCT116 cells assessed as cell growth at 0.1 uM after 48 hrs by SRB assay relative to control; conditions: HCT-116, 48 h, read-out: Activity
SNB-75 = assay: Growth inhibition of human SNB75 cells assessed as cell growth at 0.1 uM after 48 hrs by SRB assay relative to control; conditions: SNB-75, 48 h, read-out: Activity
UACC-62 = assay: Growth inhibition of human UACC62 cells assessed as cell growth at 0.1 uM after 48 hrs by SRB assay relative to control; conditions: UACC-62, 48 h, read-out: Activity
OVCAR-4 [6] = assay: Growth inhibition of human OVCAR4 cells assessed as cell growth at 0.1 uM after 48 hrs by SRB assay relative to control; conditions: OVCAR-4, 48 h, read-out: Activity
K562 = assay: Growth inhibition of human K562 cells assessed as cell growth at 1 uM after 48 hrs by SRB assay relative to control; conditions: K562, 48 h, read-out: Activity
SF-295 [7] = assay: Growth inhibition of human SF295 cells assessed as cell growth at 1 uM after 48 hrs by SRB assay relative to control; conditions: SF-295, 48 h, read-out: Activity
IGROV-1 = assay: Growth inhibition of human IGROV1 cells assessed as cell growth at 1 uM after 48 hrs by SRB assay relative to control; conditions: IGROV-1, 48 h, read-out: Activity
OVCAR-4 [8] = assay: Growth inhibition of human OVCAR4 cells assessed as cell growth at 1 uM after 48 hrs by SRB assay relative to control; conditions: OVCAR-4, 48 h, read-out: Activity
MOLT-4 = assay: Growth inhibition of human MOLT4 cells assessed as cell growth at 10 uM after 48 hrs by SRB assay relative to control; conditions: MOLT-4, 48 h, read-out: Activity
Malme-3M = assay: Growth inhibition of human MALME-3M cells assessed as cell growth at 10 uM after 48 hrs by SRB assay relative to control; conditions: read-out: Activity
M14 = assay: Growth inhibition of human M14 cells assessed as cell growth at 10 uM after 48 hrs by SRB assay relative to control; conditions: M14, 48 h, read-out: Activity
OVCAR-8 = assay: Growth inhibition of human OVCAR8 cells assessed as cell growth at 10 uM after 48 hrs by SRB assay relative to control; conditions: OVCAR-8, 48 h, read-out: Activity
CCRF-CEM = assay: Growth inhibition of human CCRF-CEM cells assessed as cell growth at 100 uM after 48 hrs by SRB assay relative to control; conditions: read-out: Activity
SK-MEL-2 = assay: Growth inhibition of human SK-MEL-2 cells assessed as cell growth at 100 uM after 48 hrs by SRB assay relative to control; conditions: SK-MEL-2, 48 h, read-out: Activity
CAKI-1 [9] = assay: Growth inhibition of human Caki1 cells assessed as cell growth at 100 uM after 48 hrs by SRB assay relative to control; conditions: CAKI-1, 48 h, read-out: Activity
UO-31 = assay: Growth inhibition of human UO31 cells assessed as cell growth at 100 uM after 48 hrs by SRB assay relative to control; conditions: UO-31, 48 h, read-out: Activity
BT-549 = assay: Growth inhibition of human BT549 cells assessed as cell growth at 100 uM after 48 hrs by SRB assay relative to control; conditions: BT-549, 48 h, read-out: Activity
SF-295 [10] = assay: Cytotoxicity against human SF295 cells assessed as growth inhibition after 48 hrs by SRB assay; conditions: SF-295, 48 h
OVCAR-5 = assay: Cytotoxicity against human OVCAR5 cells assessed as growth inhibition after 48 hrs by SRB assay; conditions: OVCAR-5, 48 h
786-0 [11] = assay: Cytotoxicity against human 786-0 cells assessed as growth inhibition after 48 hrs by SRB assay; conditions: 786-0, 48 h
DU-145 [12] = assay: Cytotoxicity against human DU145 cells assessed as growth inhibition after 48 hrs by SRB assay; conditions: DU-145, 48 h
[13] = read-out: LC50 (the source's name)
[14] = read-out: pLC50 (the source's name) (converted)

COc1ccc2c(c1)CCc1n[nH]c(-c3cc(OC)c(OC)c(OC)c3)c1-2
growth at 0.01 µM (HCT-116 [1]): 7% | growth at 0.01 µM (SF-268): 39% | growth at 0.01 µM (SK-MEL-28): 53% | growth at 0.01 µM (NCI/ADR-RES): -13% | growth at 0.01 µM (786-0 [2]): 24% | growth at 0.01 µM (CAKI-1 [3]): 30% | growth at 0.01 µM (PC-3): 20% | growth at 0.01 µM (DU-145 [4]): 13% | growth at 0.1 µM (RPMI-8226): 51% | growth at 0.1 µM (NCI-H322M): 40% | growth at 0.1 µM (HCC 2998): 11% | growth at 0.1 µM (HCT-116 [5]): 3% | growth at 0.1 µM (SNB-75): 31% | growth at 0.1 µM (UACC-62): 35% | growth at 0.1 µM (OVCAR-4 [6]): 44% | growth at 1 µM (K562): 18% | growth at 1 µM (SF-295 [7]): 5% | growth at 1 µM (IGROV-1): 26% | growth at 1 µM (OVCAR-4 [8]): 40% | growth at 10 µM (MOLT-4): 31% | growth at 10 µM (Malme-3M): 41% | growth at 10 µM (M14): 2% | growth at 10 µM (OVCAR-8): 9% | growth at 100 µM (CCRF-CEM): 25% | growth at 100 µM (SK-MEL-2): -51% | growth at 100 µM (CAKI-1 [9]): -20% | growth at 100 µM (UO-31): -43% | growth at 100 µM (BT-549): -36% | GI50 (SF-295 [10]; read-out: GI50): < 0.01 µM | CC50 (SF-295 [10]; [13]): 64.5 µM | TGI (SF-295 [10]; read-out: TGI): 3.21 µM | GI50 (SF-295 [10]; read-out: pGI50 (converted)): < 0.01 µM | CC50 (SF-295 [10]; [14]): 64.6 µM | TGI (SF-295 [10]; read-out: pTGI (converted)): 3.24 µM | GI50 (OVCAR-5; read-out: GI50): 0.242 µM | LC50 (OVCAR-5; read-out: LC50): > 100 µM | TGI (OVCAR-5; read-out: TGI): 38.8 µM | GI50 (OVCAR-5; read-out: pGI50 (converted)): 0.24 µM | LC50 (OVCAR-5; read-out: pLC50 (converted)): > 100 µM | TGI (OVCAR-5; read-out: pTGI (converted)): 38.9 µM | GI50 (786-0 [11]; read-out: GI50): < 0.01 µM | CC50 (786-0 [11]; [13]): > 100 µM | TGI (786-0 [11]; read-out: TGI): 11.5 µM | GI50 (786-0 [11]; read-out: pGI50 (converted)): < 0.01 µM | CC50 (786-0 [11]; [14]): > 100 µM | TGI (786-0 [11]; read-out: pTGI (converted)): 11.5 µM | GI50 (DU-145 [12]; read-out: GI50): < 0.01 µM | CC50 (DU-145 [12]; [13]): > 100 µM | TGI (DU-145 [12]; read-out: TGI): > 100 µM | GI50 (DU-145 [12]; read-out: pGI50 (converted)): < 0.01 µM | CC50 (DU-145 [12]; [14]): > 100 µM | TGI (DU-145 [12]; read-out: pTGI): > 100 µM
